Data as given in patent publication US20110003888A1, “HOPS EXTRACTION METHODS AND MIXTURES” (Bioactives, Inc., priority 2007, published 2011).
pIC50: −log10 of the molar value. Blank lines part the entries; values can stand above or below the compound they belong to.

Tests used:
Cyp1 A1 = target: T1, Cyp1 A1 (Homo sapiens, UniProt P04798); conditions: cDNA-expressed human Cyp1 A1; cited from earlier work
T1 sequence (P04798 1-512): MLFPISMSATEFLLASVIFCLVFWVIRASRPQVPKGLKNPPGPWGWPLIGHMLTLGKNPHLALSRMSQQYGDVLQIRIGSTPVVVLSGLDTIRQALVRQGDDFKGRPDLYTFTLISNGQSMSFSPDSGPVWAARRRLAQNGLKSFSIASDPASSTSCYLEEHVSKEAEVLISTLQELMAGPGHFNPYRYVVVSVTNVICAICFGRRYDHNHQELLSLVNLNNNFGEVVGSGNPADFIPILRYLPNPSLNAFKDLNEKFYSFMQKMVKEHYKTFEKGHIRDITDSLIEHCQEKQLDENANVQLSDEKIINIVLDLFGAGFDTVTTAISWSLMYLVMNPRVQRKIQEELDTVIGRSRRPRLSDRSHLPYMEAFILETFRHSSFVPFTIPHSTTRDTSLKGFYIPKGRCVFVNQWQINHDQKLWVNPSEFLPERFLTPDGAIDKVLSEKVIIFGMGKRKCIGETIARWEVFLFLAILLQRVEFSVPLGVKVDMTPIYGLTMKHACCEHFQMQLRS

Cyp1 A2 = target: T2, Cyp1 A2 (Homo sapiens, UniProt P05177); conditions: cDNA-expressed human Cyp1 A2; cited from earlier work
T2 sequence (P05177 1-516): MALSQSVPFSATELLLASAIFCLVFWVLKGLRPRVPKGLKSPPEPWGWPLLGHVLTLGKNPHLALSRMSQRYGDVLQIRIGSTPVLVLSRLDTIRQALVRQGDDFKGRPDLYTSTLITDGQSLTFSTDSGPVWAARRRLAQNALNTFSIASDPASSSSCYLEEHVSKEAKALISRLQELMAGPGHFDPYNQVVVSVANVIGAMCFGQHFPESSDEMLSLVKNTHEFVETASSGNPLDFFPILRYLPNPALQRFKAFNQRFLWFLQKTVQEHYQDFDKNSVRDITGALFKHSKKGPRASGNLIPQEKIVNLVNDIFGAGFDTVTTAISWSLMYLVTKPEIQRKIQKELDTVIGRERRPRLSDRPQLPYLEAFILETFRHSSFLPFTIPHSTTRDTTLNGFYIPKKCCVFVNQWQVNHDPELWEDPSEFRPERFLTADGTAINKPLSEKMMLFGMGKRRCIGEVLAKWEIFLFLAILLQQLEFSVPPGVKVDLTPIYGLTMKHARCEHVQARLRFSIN

Caco-2 cell monolayers [1] = assay: Permeability across Caco-2 cell monolayers; format: in vitro ADME
Description: (§1) Percent Recovery=100×((Vr×Cr^final)+(Vd×Cd^final))/(Vd×C0) • Where: • dCr/dt is the slope of the cumulative concentration in the receiver compartment versus time in μM s^−1. • Vr is the volume of the receiver compartment in cm^3. • Vd is the volume of the donor compartment in cm^3. • A is the area of the cell-free insert (1.13 cm^2 for 12-well Transwell). • Cr^final is the cumulative receiver concentration in μM at the end of the incubation period. • Cd^final is the concentration of the donor in μM at the end of the incubation period. • C0 is the initial concentration of the dosing solution in μM.
(§2) Each determination was performed in duplicate.

[2] = Permeability across Caco-2 cell monolayers; format: in vitro ADME; conditions: human
Description: as §1, §2

inducible COX-2 = conditions: read-out: IC50, inhibition of cyclooxygenase; cited from earlier work
Cyp1B1 = target: T3, Cyp1B1 (Homo sapiens, UniProt Q16678); conditions: cDNA-expressed human Cyp1B1; cited from earlier work
T3 sequence (Q16678 1-543): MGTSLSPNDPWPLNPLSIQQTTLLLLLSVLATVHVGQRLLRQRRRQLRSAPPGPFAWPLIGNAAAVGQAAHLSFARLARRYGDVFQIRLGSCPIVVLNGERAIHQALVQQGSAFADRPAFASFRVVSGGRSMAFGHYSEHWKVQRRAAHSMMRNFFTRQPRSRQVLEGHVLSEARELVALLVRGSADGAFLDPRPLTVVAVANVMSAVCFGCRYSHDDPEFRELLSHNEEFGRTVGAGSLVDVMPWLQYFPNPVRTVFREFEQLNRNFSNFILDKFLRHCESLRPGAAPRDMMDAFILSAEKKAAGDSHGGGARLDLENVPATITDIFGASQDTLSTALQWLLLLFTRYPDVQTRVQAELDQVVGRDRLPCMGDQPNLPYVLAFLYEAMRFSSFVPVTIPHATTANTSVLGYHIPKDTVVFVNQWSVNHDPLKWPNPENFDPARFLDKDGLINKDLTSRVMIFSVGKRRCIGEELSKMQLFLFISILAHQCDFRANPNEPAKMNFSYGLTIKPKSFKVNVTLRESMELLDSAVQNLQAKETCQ

[3] = Permeability through cell-free (blank) microporous membrane filter, non-specific binding assessment; format: in vitro ADME; conditions: not told, pH 7.4, cell-free filter; for Papp A→B at 120 min, 2 μM: xanthohumol gel formulation at 2 μM xanthohumol; for recovery at 120 min, 2 μM: xanthohumol gel formulation at 2 μM
Description: The permeability of the xanthohumol gel through a cell-free (blank) microporous 0.4 micron membrane filter was studied in order to determine the non-specific binding and cell-free diffusion Papp of the xanthohumol gel formulation. The xanthohumol gel formulation was assayed at a 2 μM xanthohumol concentration in Hanks buffer (Hanks Balanced Salt Solution (HBSSg) containing 10 mM HEPES and 15 mM glucose) at a pH of 7.4 in duplicate. Donor samples were collected at 120 minutes. Receiver samples were collected at 60 and 120 minutes. The apparent permeability coefficient, Papp, and percent recovery were calculated as follows:
as §1

in vitro = conditions: human, Caco-2
Description: (§3) To test the permeability of xanthohumol across Caco-2 cell monolayers, Caco-2 cell monolayers were grown to confluence on collagen-coated, microporous, polycarbonate membranes in 12-well Costar Transwell® plates. Details of the plates and their certification are shown below in Table 3. The test article was also the aqueous xanthohumol formulation, and the dosing concentration was 2 μM in the assay buffer (HBSSg) as in the previous example. Cell monolayers were dosed on the apical side (A-to-B) or basolateral side (B-to-A) and incubated at 37° C. with 5% CO2 in a humidified incubator. Samples were taken from the donor chamber at 120 minutes, and samples from the receiver chamber were collected at 60 and 120 minutes. Each determination was performed in duplicate. Lucifer yellow permeability was also measured for each monolayer after being subjected to the test article to ensure no damage was inflicted to the cell monolayers during the permeability experiment. All samples were assayed for Xanthohumol by LC/MS/MS using electrospray ionization. The apparent permeability (Papp), and percent recovery were calculated as described above.

endothelial cells = conditions: in vitro model, endothelial cells invading collagen gel and forming capillary-like tubes; cited from earlier work
Caco-2 cell monolayers [4] = assay: Caco-2 Transwell plate certification with control compounds; conditions: Caco-2 plate certification, TW12, passage 63, age 22 days
Description: as §3

Compound: COc1cc(O)c(CC=C(C)C)c(O)c1C(=O)/C=C/c1ccc(O)cc1 [Xanthohumol, xanthohumol]
Inhibition of cytochrome P450 enzyme (Cyp1 A1): strongly inhibit
Inhibition of cytochrome P450 enzyme (Cyp1 A2): strongly inhibit
Significant Efflux (Caco-2 cell monolayers [1]; Caco-2): No
efflux ratio at 120 min, 2 μM ([2]; Caco-2, pH 7.4): 2.1
Papp A→B at 120 min, 2 μM ([2]; Caco-2, pH 7.4, Papp): 0.84 ×10⁻⁶ cm/s
Papp B→A at 120 min, 2 μM ([2]; Caco-2, pH 7.4, Papp): 1.36 ×10⁻⁶ cm/s
pIC50 (inducible COX-2): 4.38
Inhibition of cytochrome P450 enzyme (Cyp1B1): strongly inhibit
Papp A→B at 120 min, 2 μM ([3]; pH 7.4, Rep. 1): 18.6 ×10⁻⁶ cm/s
Papp A→B at 120 min, 2 μM ([3]; pH 7.4, Rep. 2): 17.1 ×10⁻⁶ cm/s
Papp A→B at 120 min, 2 μM ([3]; pH 7.4, average N = 2): 17.9 ×10⁻⁶ cm/s
recovery at 120 min, 2 μM ([3]; Rep. 1): 95%
recovery at 120 min, 2 μM ([3]; Rep. 2): 99%
recovery at 120 min, 2 μM ([3]; average N = 2): 97%

Compound: CC(C)=CCc1c(O)cc(O)c2c1O[C@H](c1ccc(O)cc1)CC2=O [8-prenylnaringenin]
Inhibition of cytochrome P450 enzyme (Cyp1 A1): strongly inhibit
Inhibition of cytochrome P450 enzyme (Cyp1 A2): strongly inhibit
Effect on angiogenesis (endothelial cells): inhibits angiogenesis
Inhibition of cytochrome P450 enzyme (Cyp1B1): strongly inhibit

Compound: Lucifer Yellow [reference compound]
Lucifer yellow Papp, post-experiment integrity control (Caco-2 cell monolayers [1]; all monolayers after exposure to test article): < 0.8 ×10⁻⁶ cm/s
Papp (Caco-2 cell monolayers [4]): 0.13 ×10⁻⁶ cm/s

Compound: COc1cc(O)c(CC=C(C)C)c2c1C(=O)CC(c1ccc(O)cc1)O2 (stereo not shown) [isoxanthohumol]
Inhibition of cytochrome P450 enzyme (Cyp1 A1): strongly inhibit
Inhibition of cytochrome P450 enzyme (Cyp1 A2): strongly inhibit
Inhibition of cytochrome P450 enzyme (Cyp1B1): strongly inhibit

Continued, values first:

Papp (in vitro): 20.6 ×10⁻⁶ cm/s
Compound: CC(C)NCC(O)COc1cccc2ccccc12 (stereo not shown) [Propranolol]

efflux ratio (in vitro): 16.6
Compound: C[C@H]1O[C@@H](O[C@H]2[C@@H](O)C[C@H](O[C@H]3[C@@H](O)C[C@H](O[C@H]4CC[C@@]5(C)[C@H](CC[C@@H]6[C@@H]5C[C@@H](O)[C@]5(C)[C@@H](C7=CC(=O)OC7)CC[C@]65O)C4)O[C@@H]3C)O[C@@H]2C)C[C@H](O)[C@@H]1O [Digoxin]
